Reference: patent US11814364B2, “Pyridine N-oxide derivatives useful as factor XIa inhibitors” (Janssen Pharmaceutica NV, priority 2021, dated 2023)

Each compound was assayed against human plasma kallikrein (Homo sapiens, UniProt P03952) (assay: Kallikrein inhibition FLINT assay with quenched AMC peptide substrate Z-Gly-Pro-Arg-AMC (end point EP or kinetic KIN reads)). Details: kinetic reads at 5 min intervals over 30 min; read-out: Kallikrein (KIN) IC50.
Chain of human plasma kallikrein (P03952 391-638 limits assumed): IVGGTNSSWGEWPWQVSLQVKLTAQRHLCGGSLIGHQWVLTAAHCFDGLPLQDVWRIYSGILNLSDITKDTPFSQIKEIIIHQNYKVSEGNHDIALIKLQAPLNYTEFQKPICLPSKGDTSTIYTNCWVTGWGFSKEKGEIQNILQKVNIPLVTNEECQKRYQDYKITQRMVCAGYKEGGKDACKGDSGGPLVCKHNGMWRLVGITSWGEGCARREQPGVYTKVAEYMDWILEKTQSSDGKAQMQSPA
Chain of human plasma kallikrein (P03952 20-390 partner limits assumed): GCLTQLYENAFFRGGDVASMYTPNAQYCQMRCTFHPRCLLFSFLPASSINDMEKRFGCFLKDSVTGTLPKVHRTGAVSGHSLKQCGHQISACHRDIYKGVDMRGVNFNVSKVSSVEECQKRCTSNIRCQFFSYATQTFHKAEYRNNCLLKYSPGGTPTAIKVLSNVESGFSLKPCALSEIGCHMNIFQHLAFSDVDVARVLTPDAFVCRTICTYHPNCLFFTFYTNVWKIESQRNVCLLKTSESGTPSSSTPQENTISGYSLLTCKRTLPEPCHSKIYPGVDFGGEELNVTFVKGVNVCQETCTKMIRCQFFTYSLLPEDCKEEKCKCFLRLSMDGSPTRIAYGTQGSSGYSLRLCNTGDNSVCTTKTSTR
Type: biochemical
Description: A fluorescence intensity (FLINT) based assay was used to monitor inhibition of human plasma kallikrein.
The Kallikrein FLINT assay was used with the following Z-Gly-Pro-Arg-AMC assay buffer: 50 mM Tris, pH 7.5, 100 mM NaCl, 5 mM CaCl2, 0.1 mg/mL BSA, 0.03% CHAPS. Assay buffer was prepared by mixing all ingredients fresh. 2× Z-Gly-Pro-Arg-AMC peptide substrate was prepared by diluting 10 mM stock into 1× assay buffer for a 100 μM working concentration (50 μM final concentration).
Test compound(s) were run in an 11-point, 3-fold serial dilution with a final top compound concentration of 1 μM. Final DMSO in assay was 2%. Plasma kallikrein was pre-incubated for 30-minute with compound and then 50 μM substrate was added to initiate the reaction. The assay was run with either end point (EP) reads at 30 min or kinetic (KIN) reads at 5 min intervals over 30 minutes.
Percent inhibition (IC50) curves were generated per compound tested, and data was analyzed using a 4-parameter logistic fit using GeneData Screener. The relative fluorescence unit (RFU) values were normalized to percent inhibition using the following equation: % inhibition=((HC−LC)−(compound−LC)/(HC−LC))*100
An 11-point dose response curve for the test compound(s) was generated using GENDATA to determine IC50 value based on the following equation: Y=Bottom+(Top−Bottom)/(1+10^((log IC50−X)*HillSlope))
Results listed in columns with […] designation were measured using endpoint reads where a single fluorescence reading was measured for each well at a 30 min timepoint.
With [O-][n+]1cc(-c2c(-n3cnnn3)ccc(Cl)c2F)ccc1C(C(O)c1ccccc1)n1cc(-c2ccnn2C(F)F)cn1 (single isomer, unassigned) [Example P713] the IC50 was 0.0299 µM. For COC(=O)Nc1ccc(-c2cnn(C(CC(C)OC)c3ccc(-c4c(-n5cnnn5)ccc(Cl)c4F)c[n+]3[O-])c2)cc1 (single isomer, unassigned) [Example P228], the IC50 was 1.29 µM. Work on Cc1nc(N)ccc1-c1cnn(C(CC2CC2)c2ccc(-c3c(-n4cnnn4)ccc(Cl)c3F)c[n+]2[O-])c1 (stereo not shown) [Example P183] yielded an IC50 of 0.186 µM. COc1ccc(C2CC2CC(c2ccc(-c3cc(Cl)ccc3-n3cnnn3)c[n+]2[O-])n2cc(-c3ccc(C(=O)O)cc3)cn2)cc1 (stereo not shown) [Example P239] showed an IC50 of 0.18 µM. CCC(c1cc(OC)c(-c2cc(Cl)ccc2-n2cc(C(F)(F)F)nn2)c[n+]1[O-])n1cc(-c2ccc(C(N)=O)c(F)c2)cn1 (single isomer, unassigned) [Example P877] showed an IC50 of 0.22 µM. Compound NC(=O)C1CC1CC(c1ccc(-c2cc(Cl)ccc2-n2cnnn2)c[n+]1[O-])n1cc(-c2ccc(C(=O)O)cc2)cn1 (stereo not shown) [Example P114] has an IC50 of 0.184 µM. In the case of COC(=O)Nc1ccc(-c2cnn(C(Cc3ccn(C)n3)c3ccc(-c4c(-n5cnnn5)ccc(Cl)c4F)c[n+]3[O-])c2)cc1 (single isomer, unassigned) [Example P328], the IC50 is reported as 0.0004 µM. In the case of NC(=O)c1ccc(-c2cnn(C(CC(=O)N3CCCC3)c3ccc(-c4c(-n5cc(C(F)(F)F)nn5)ccc(Cl)c4F)c[n+]3[O-])c2)cc1F (stereo not shown) [Example P902], the IC50 is reported as 0.0871 µM. N#Cc1cn(-c2ccc(Cl)c(F)c2-c2ccc([C@@H](CCOC(F)F)n3cc(-c4cnnn4C(F)F)cn3)[n+]([O-])c2)nn1 [Example P817] was tested, and the IC50 was 0.0235 µM. In the case of Nc1ccc(-c2cnn(C(CC3CC3)c3ccc(-c4c(-n5cnnn5)ccc(Cl)c4F)c[n+]3[O-])c2)c(Cl)n1 (single isomer, unassigned) [Example P178], the IC50 is reported as 0.0216 µM. Compound [O-][n+]1cc(-c2c(-n3cnnn3)ccc(Cl)c2F)ccc1C(CCOC(F)F)n1cc(-c2c(Cl)cnn2C(F)F)cn1 (stereo not shown) [Example P574] has an IC50 of 0.0079 µM. For COC(=O)Nc1ccc(-c2cnn(C(CCOC(C)C)c3ccc(-c4c(-n5cnnn5)ccc(Cl)c4F)c[n+]3[O-])c2)cc1 (single isomer, unassigned) [Example P192], the IC50 was 0.024 µM. Work on CN(CC(c1ccc(-c2c(-n3cnnn3)ccc(Cl)c2F)c[n+]1[O-])n1cc(-c2ccncc2)cn1)C(=O)c1ccccc1 (stereo not shown) [Example P296] yielded an IC50 of 0.0364 µM. With NC(=O)c1ccnn1CC(c1ccc(-c2c(C(F)F)ccc(Cl)c2F)c[n+]1[O-])n1cc(-c2ccnc(C(F)(F)F)c2)cn1 (single isomer, unassigned) [Example Q27] the IC50 was 0.0047 µM. For [O-][n+]1cc(-c2c(-n3cnnn3)ccc(Cl)c2F)ccc1[C@H](Cn1cc(F)cn1)n1cc(-c2cncs2)cn1 [Example P493], the IC50 was 0.179 µM. [O-][n+]1cc(-c2c(-n3cnnn3)ccc(Cl)c2F)ccc1C(Cn1ccc(C2CCOCC2)n1)n1cc(-c2ccnc(C(F)(F)F)c2)cn1 (stereo not shown) [Example P419] showed an IC50 of 0.0363 µM. In the case of NC(=O)c1ccc(-c2cnn(C(Cc3ccn(C(F)F)n3)c3ccc(-c4c(C(F)F)ccc(Cl)c4F)c[n+]3[O-])c2)cc1F (single isomer, unassigned) [Example Q67], the IC50 is reported as 0.0029 µM. Compound COc1cc(C(Cc2ccn(C(F)F)n2)n2cc(-c3ccc(C(N)=O)c(F)c3)cn2)[n+]([O-])cc1-c1c(C(F)F)ccc(Cl)c1F (stereo not shown) [Example Q75] has an IC50 of 0.01 µM. CC(C)n1ccc(C[C@H](c2ccc(-c3c(-n4cnnn4)ccc(Cl)c3F)c[n+]2[O-])n2cc(-c3ccnc(C(F)(F)F)c3)cn2)n1 [Example P652] showed an IC50 of 0.0022 µM. CCC(c1cc(OC)c(-c2cc(Cl)ccc2-n2cc(C(F)(F)F)nn2)c[n+]1[O-])n1cc(-c2ncnn2C(F)F)cn1 (single isomer, unassigned) [Example P923] was tested, and the IC50 was 0.0385 µM. Work on O=C1CCC(c2ccc(-c3cnn(C(Cc4ccc(F)cc4)c4ccc(-c5c(-n6cnnn6)ccc(Cl)c5F)c[n+]4[O-])c3)cc2)N1 (stereo not shown) [Example P121] yielded an IC50 of 0.0113 µM. For [O-][n+]1cc(-c2c(-n3cnnn3)ccc(Cl)c2F)ccc1C(CCOC(F)F)n1cc(-c2c(Cl)ncn2C(F)F)cn1 (single isomer, unassigned) [Example P843], the IC50 was about 0.071 µM. [O-][n+]1cc(-c2c(-n3cnnn3)ccc(Cl)c2F)ccc1C(CC1CC1)n1cc(-c2ccnn2C(F)F)cn1 (stereo not shown) [Example P542] gave an IC50 of 0.302 µM. [O-][n+]1cc(-c2c(-n3cnnn3)ccc(Cl)c2F)ccc1C(Cn1nccc1C(F)(F)F)n1cc(-c2ccnc(F)c2)cn1 (stereo not shown) [Example P346] showed an IC50 of 0.0118 µM. Cc1nccn1-c1cnn(C(CCOC(F)F)c2ccc(-c3c(-n4cc(OC(F)F)nn4)ccc(Cl)c3F)c[n+]2[O-])c1 (single isomer, unassigned) [Example P826] showed an IC50 of 0.303 µM. In the case of NC(=O)c1ccc(-c2cnn(C(Cc3ccn(C(F)F)n3)c3ccc(-c4c(C(F)F)ccc(Cl)c4F)c[n+]3[O-])c2)cc1 (single isomer, unassigned) [Example Q68], the IC50 is reported as 0.111 µM. Compound CCC(c1ccc(-c2c(-n3cc(C(F)(F)F)nn3)ccc(Cl)c2F)c[n+]1[O-])n1cc(-c2ccc(C(N)=O)c(F)c2)cn1 (single isomer, unassigned) [Example P883] has an IC50 of 0.103 µM. NC(=O)c1ccc(-c2cnn(C(Cc3ccn(C(F)F)n3)c3ccc(-c4cc(Cl)ccc4-n4cc(C(F)(F)F)nn4)c[n+]3[O-])c2)cc1F (single isomer, unassigned) [Example P905] gave an IC50 of 0.889 µM. In the case of CC1(C(=O)NCC(c2ccc(-c3cc(Cl)ccc3-n3cnnn3)c[n+]2[O-])n2cc(-c3ccnc(F)c3)cn2)CC1 (stereo not shown) [Example P347], the IC50 is reported as 0.806 µM. With [O-][n+]1cc(-c2c(-n3cnnn3)ccc(Cl)c2F)ccc1C(Cc1ccc(F)cc1)n1cc(-c2c(Cl)nnn2C(F)F)cn1 (single isomer, unassigned) [Example P589] the IC50 was 0.52 µM. Work on [O-][n+]1cc(-c2c(-n3cnnn3)ccc(Cl)c2F)ccc1C(Cn1cc(F)cn1)n1cc(-c2ccnn2C(F)F)cn1 (stereo not shown) [Example P645] yielded an IC50 of 0.893 µM. COC(=O)Nc1ccc(-c2cnn(C(Cn3cccn3)c3ccc(-c4c(-n5cnnn5)ccc(Cl)c4F)c[n+]3[O-])c2)cc1 (single isomer, unassigned) [Example P272] showed an IC50 of 0.0032 µM. CN(CC(c1ccc(-c2c(-n3cnnn3)ccc(Cl)c2F)c[n+]1[O-])n1cc(-c2ccnc(C(F)(F)F)c2)cn1)C(=O)CCC(=O)N1CCCCC1 (single isomer, unassigned) [Example P400] showed an IC50 of 0.0938 µM. For Cn1nncc1-c1cnn([C@H](CCOC(F)F)c2ccc(-c3c(N)ccc(Cl)c3F)c[n+]2[O-])c1 [Example Q44], the IC50 was 0.0807 µM. With N#Cc1cc(-c2cnn(C(Cn3cc(F)cn3)c3ccc(-c4c(-n5cnnn5)ccc(Cl)c4F)c[n+]3[O-])c2)ccn1 (single isomer, unassigned) [Example P453] the IC50 was 0.132 µM. Compound COC(=O)Nc1ccc(-c2cnn(C(Cn3cccn3)c3ccc(-c4c(-n5cnnn5)ccc(Cl)c4F)c[n+]3[O-])c2)cc1 (stereo not shown) [Example P214] has an IC50 of 0.0063 µM. [O-][n+]1cc(-c2c(-n3cnnn3)ccc(Cl)c2F)ccc1[C@@H](CCOC(F)F)n1cc(-c2c(Cl)nnn2C(F)F)cn1 [Example P714] gave an IC50 of 0.0286 µM. O=C(O)c1ccc(-c2cnn(C(CCc3ccccc3)c3ccc(-c4cc(Cl)ccc4-n4cnnn4)c[n+]3[O-])c2)cc1 (stereo not shown) [Example P65] was tested, and the IC50 was 0.721 µM. Work on [O-][n+]1cc(-c2c(-n3cc(Cl)nn3)ccc(Cl)c2F)ccc1[C@@H](CCOC(F)F)n1cc(-c2nncn2C(F)F)cn1 [Example P692] yielded an IC50 of 0.334 µM. [O-][n+]1cc(-c2c(-n3cnnn3)ccc(Cl)c2F)ccc1C(CCOC(F)F)n1cc(-c2cn(C(F)F)nn2)cn1 (single isomer, unassigned) [Example P659] gave an IC50 of 0.17 µM. For N#Cc1cc(-c2cnn(C(CN3CCOC3=O)c3ccc(-c4c(-n5cnnn5)ccc(Cl)c4F)c[n+]3[O-])c2)ccn1 (single isomer, unassigned) [Example P439], the IC50 was 0.0698 µM. Compound [O-][n+]1cccc(-c2cnn(C(Cc3ccc(Cl)cc3)c3ccc(-c4cc(Cl)ccc4-n4cnnn4)c[n+]3[O-])c2)c1 (stereo not shown) [Example P151] has an IC50 of 0.0801 µM. Compound [O-][n+]1cc(-c2c(-n3cnnn3)ccc(Cl)c2F)ccc1C(CC1CCCO1)n1cc(-c2ccncc2)cn1 (stereo not shown) [Example P186] has an IC50 of 0.32 µM. Cn1nncc1-c1cnn([C@H](Cc2ccc(F)cc2)c2ccc(-c3c(-n4cc(OC(F)F)nn4)ccc(Cl)c3F)c[n+]2[O-])c1 [Example P635] was tested, and the IC50 was 0.0034 µM. Work on COc1cc(C(CC2CC2)n2cc(-c3cnn(C(C)C)c(=O)c3)cn2)[n+]([O-])cc1-c1c(-n2cnnn2)ccc(Cl)c1F (stereo not shown) [Example P161] yielded an IC50 of 0.0767 µM. Work on [O-][n+]1cc(-c2c(-n3cnnn3)ccc(Cl)c2F)ccc1C(CC1CC1)n1cc(-c2ncns2)cn1 (stereo not shown) [Example P525] yielded an IC50 of 0.812 µM. For CC(=O)N(C)CC(c1ccc(-c2c(-n3cnnn3)ccc(Cl)c2F)c[n+]1[O-])n1cc(-c2ccnc(C(F)(F)F)c2)cn1 (single isomer, unassigned) [Example P404], the IC50 was 0.0684 µM. Cn1nnc(F)c1-c1cnn([C@H](CCOC(F)F)c2ccc(-c3c(-n4cnnn4)ccc(Cl)c3F)c[n+]2[O-])c1 [Example P724] gave an IC50 of 0.0085 µM. Work on Cn1ncc(O)c1-c1cnn(C(CCOC(F)F)c2ccc(-c3c(-n4cc(Cl)nn4)ccc(Cl)c3F)c[n+]2[O-])c1 (stereo not shown) [Example P747] yielded an IC50 of 0.0262 µM.
